ChEMBL document CHEMBL1147434, “Synthesis and biological results of the technetium-99m-labeled 4-nitroimidazole for imaging tumor hypoxia” (Bioorg Med Chem Lett, 2004)

How the values were obtained:
Type in all cases: ADME, organism-based
[1] = test system: Mus musculus; assay: In vivo biodistribution of radiolabeled [99mTc]-N4IPA in mice tumor bearing S180 tumor cell line for 1 hour; settings: ccrf s-180, 1 h
[2] = test system: Mus musculus; assay: In vivo biodistribution of radiolabeled [99mTc]N4IPA in mice tumor/liver bearing S180 tumor cell line for 2 hours; settings: ccrf s-180, 2 h
[3] = test system: Mus musculus; assay: In vivo biodistribution of radiolabeled [99mTc]-N4IPA in mice spleen bearing S180 tumor cell line for 30 minutes; settings: ccrf s-180, 0.5 h
[4] = test system: Mus musculus; assay: In vivo biodistribution of radiolabeled [99mTc]-N4IPA in mice lung bearing S180 tumor cell line for 4 hours; settings: ccrf s-180, 4 h
[5] = test system: Mus musculus; assay: In vivo biodistribution of radiolabeled [99mTc]N4IPA in mice tumor bearing S180 tumor cell line for 8 hours; settings: ccrf s-180, 8 h
[6] = test system: Mus musculus; assay: In vivo biodistribution of radiolabeled [99mTc]-N4IPA in mice tumor/liver bearing S180 tumor cell line for 1 hour; settings: ccrf s-180, 1 h
[7] = test system: Mus musculus; assay: In vivo biodistribution of radiolabeled [99mTc]-N4IPA in mice liver bearing S180 tumor cell line for 30 minutes; settings: ccrf s-180, 0.5 h
[8] = test system: Mus musculus; assay: In vivo biodistribution of radiolabeled [99mTc]-N4IPA in mice muscle bearing S180 tumor cell line for 8 hours; settings: ccrf s-180, 8 h
[9] = test system: Mus musculus; assay: In vivo biodistribution of radiolabeled [99mTc]N4IPA in mice tumor/liver bearing S180 tumor cell line for 30 minutes; settings: ccrf s-180, 0.5 h
[10] = test system: Mus musculus; assay: In vivo biodistribution of radiolabeled [99mTc]N4IPA in mice lung bearing S180 tumor cell line for 8 hours; settings: ccrf s-180, 8 h
[11] = test system: Mus musculus; assay: In vivo biodistribution of radiolabeled [99mTc]N4IPA in mice tumor/blood bearing S180 tumor cell line for 30 minutes; settings: ccrf s-180, 0.5 h
[12] = test system: Mus musculus; assay: In vivo biodistribution of radiolabeled [99mTc]N4IPA in mice tumor/heart bearing S180 tumor cell line for 1 hour; settings: ccrf s-180, 1 h
[13] = test system: Mus musculus; assay: In vivo biodistribution of radiolabeled [99mTc]-N4IPA in mice tumor bearing S180 tumor cell line for 4 hours; settings: ccrf s-180, 4 h
[14] = test system: Mus musculus; assay: In vivo biodistribution of radiolabeled [99mTc]N4IPA in mice tumor/blood bearing S180 tumor cell line for 2 hours; settings: ccrf s-180, 2 h
[15] = test system: Mus musculus; assay: In vivo biodistribution of radiolabeled [99mTc]N4IPA in mice tumor/muscle bearing S180 tumor cell line for 8 hours; settings: ccrf s-180, 8 h
[16] = test system: Mus musculus; assay: In vivo biodistribution of radiolabeled [99mTc]-N4IPA in mice brain bearing S180 tumor cell line for 1 hour; settings: ccrf s-180, 1 h
[17] = test system: Mus musculus; assay: In vivo biodistribution of radiolabeled [99mTc]-N4IPA in mice kidney bearing S180 tumor cell line for 30 minutes; settings: ccrf s-180, 0.5 h
[18] = test system: Mus musculus; assay: In vivo biodistribution of radiolabeled [99mTc]N4IPA in mice brain bearing S180 tumor cell line for 2 hours; settings: ccrf s-180, 2 h
[19] = test system: Mus musculus; assay: In vivo biodistribution of radiolabeled [99mTc]N4IPA in mice brain bearing S180 tumor cell line for 4 hours; settings: ccrf s-180, 4 h
[20] = test system: Mus musculus; assay: In vivo biodistribution of radiolabeled [99mTc]N4IPA in mice spleen bearing S180 tumor cell line for 1 hour; settings: ccrf s-180, 1 h
[21] = test system: Mus musculus; assay: In vivo biodistribution of radiolabeled [99mTc]-N4IPA in mice spleen bearing S180 tumor cell line for 8 hours; settings: ccrf s-180, 8 h
[22] = test system: Mus musculus; assay: In vivo biodistribution of radiolabeled [99mTc]-N4IPA in mice tumor/lung bearing S180 tumor cell line for 1 hour; settings: ccrf s-180, 1 h
[23] = test system: Mus musculus; assay: In vivo biodistribution of radiolabeled [99mTc]N4IPA in mice heart bearing S180 tumor cell line for 8 hours; settings: ccrf s-180, 8 h
[24] = test system: Mus musculus; assay: In vivo biodistribution of radiolabeled [99mTc]N4IPA in mice tumor bearing S180 tumor cell line for 2 hours; settings: ccrf s-180, 2 h
[25] = test system: Mus musculus; assay: In vivo biodistribution of radiolabeled [99mTc]-N4IPA in mice tumor/lung bearing S180 tumor cell line for 30 minutes; settings: ccrf s-180, 0.5 h
[26] = test system: Mus musculus; assay: In vivo biodistribution of radiolabeled [99mTc]-N4IPA in mice blood bearing S180 tumor cell line for 1 hour; settings: ccrf s-180, 1 h
[27] = test system: Mus musculus; assay: In vivo biodistribution of radiolabeled [99mTc]-N4IPA in mice tumor/liver bearing S180 tumor cell line for 4 hours; settings: ccrf s-180, 4 h
[28] = test system: Mus musculus; assay: In vivo biodistribution of radiolabeled [99mTc]-N4IPA in mice tumor bearing S180 tumor cell line for 30 minutes; settings: ccrf s-180, 0.5 h
[29] = test system: Mus musculus; assay: In vivo biodistribution of radiolabeled [99mTc]-N4IPA in mice liver bearing S180 tumor cell line for 4 hours; settings: ccrf s-180, 4 h
[30] = test system: Mus musculus; assay: In vivo biodistribution of radiolabeled [99mTc]N4IPA in mice tumor/blood bearing S180 tumor cell line for 8 hours; settings: ccrf s-180, 8 h
[31] = test system: Mus musculus; assay: In vivo biodistribution of radiolabeled [99mTc]-N4IPA in mice tumor/heart bearing S180 tumor cell line for 30 minutes; settings: ccrf s-180, 0.5 h
[32] = test system: Mus musculus; assay: In vivo biodistribution of radiolabeled [99mTc]N4IPA in mice brain bearing S180 tumor cell line for 8 hours; settings: ccrf s-180, 8 h
[33] = test system: Mus musculus; assay: In vivo biodistribution of radiolabeled [99mTc]-N4IPA in mice muscle bearing S180 tumor cell line for 4 hours; settings: ccrf s-180, 4 h
[34] = test system: Mus musculus; assay: In vivo biodistribution of radiolabeled [99mTc]-N4IPA in mice blood bearing S180 tumor cell line for 8 hours; settings: ccrf s-180, 8 h
[35] = test system: Mus musculus; assay: In vivo biodistribution of radiolabeled [99mTc]N4IPA in mice lung bearing S180 tumor cell line for 30 minutes; settings: ccrf s-180, 0.5 h

## N/C(CCn1cnc([N+](=O)[O-])c1)=N\O
[1]
  Biodistribution: 0.45 % g-1
[2]
  Biodistribution: 0.85 % g-1
[3]
  Biodistribution: 0.13 % g-1
[4]
  Biodistribution: 0.12 % g-1
[5]
  Biodistribution: 0.32 % g-1
[6]
  Biodistribution: 0.57 % g-1
[7]
  Biodistribution: 0.98 % g-1
[8]
  Biodistribution: 0.04 % g-1
[9]
  Biodistribution: 0.56 % g-1
[10]
  Biodistribution: 0.1 % g-1
[11]
  Biodistribution: 0.78 % g-1
[12]
  Biodistribution: 3.22 % g-1
[13]
  Biodistribution: 0.34 % g-1
[14]
  Biodistribution: 1.81 % g-1
[15]
  Biodistribution: 8.83 % g-1
[16]
  Biodistribution: 0.04 % g-1
[17]
  Biodistribution: 5.63 % g-1
[18]
  Biodistribution: 0.04 % g-1
[19]
  Biodistribution: 0.04 % g-1
[20]
  Biodistribution: 0.1 % g-1
[21]
  Biodistribution: 0.06 % g-1
[22]
  Biodistribution: 2.06 % g-1
[23]
  Biodistribution: 0.06 % g-1
[24]
  Biodistribution: 0.39 % g-1
[25]
  Biodistribution: 1.42 % g-1
[26]
  Biodistribution: 0.28 % g-1
[27]
  Biodistribution: 0.88 % g-1
[28]
  Biodistribution: 0.55 % g-1
[29]
  Biodistribution: 0.39 % g-1
[30]
  Biodistribution: 2.06 % g-1
[31]
  Biodistribution: 2.31 % g-1
[32]
  Biodistribution: 0.04 % g-1
[33]
  Biodistribution: 0.04 % g-1
[34]
  Biodistribution: 0.15 % g-1
[35]
  Biodistribution: 0.39 % g-1
